Assay results as given in the NIST ThermoML archive (doi:10.1016/j.tca.2013.05.022).

Columns and labels:
[1] = relative permittivity at zero frequency (dimensionless); φn = volume fraction of the nth substance listed; settings: Liquid, Parallel plate capacitor
[2] = relative permittivity at zero frequency (dimensionless); settings: Liquid, Parallel plate capacitor

Cc1ccccc1 [toluene] + CCCO
relative permittivity at zero frequency, [1], 101 kPa
Settings | φ2 = 0.1 | φ2 = 0.2 | φ2 = 0.3 | φ2 = 0.4 | φ2 = 0.5 | φ2 = 0.6 | φ2 = 0.7 | φ2 = 0.8 | φ2 = 0.9
303 K | 3.28 | 4.67 | 6.29 | 7.59 | 8.79 | 11.44 | 13.76 | 15.84 | 18.08
313 K | 3.17 | 4.59 | 6.18 | 7.23 | 8.17 | 11.18 | 13.37 | 15.59 | 17.87
323 K | 2.98 | 4.42 | 5.95 | 6.89 | 7.88 | 10.89 | 13.18 | 15.29 | 17.24

CC(C)O [propan-2-ol] + Cc1ccccc1
relative permittivity at zero frequency, [1], 307116 kPa
Settings | φ1 = 0.1 | φ1 = 0.2 | φ1 = 0.3 | φ1 = 0.4 | φ1 = 0.5 | φ1 = 0.6 | φ1 = 0.7 | φ1 = 0.8 | φ1 = 0.9 | φ1 = 1
303 K | 3.55 | 4.83 | 5.98 | 6.85 | 8.06 | 10.1 | 12.09 | 14.27 | 16.36 | 18.25
313 K | 3.12 | 4.48 | 5.55 | 6.45 | 7.75 | 9.73 | 11.75 | 13.65 | 15.98 | 17.75
323 K | 3 | 4.12 | 5.13 | 6.15 | 7.46 | 9.45 | 11.24 | 13.34 | 15.35 | 16.57

CCCO [propan-1-ol]
[2], 101 kPa
Settings | relative permittivity at zero frequency
303 K | 19.95
313 K | 18.65
323 K | 17.82

CO [methanol]
[2], 101 kPa
Settings | relative permittivity at zero frequency
303 K | 33.19
313 K | 32.35
323 K | 31.98

CO [methanol] + Cc1ccccc1
[1], 101 kPa, φ1 = 1
Settings | relative permittivity at zero frequency
303 K | 33.19
313 K | 32.35
323 K | 31.98

CC(C)O [propan-2-ol]
[2], 307116 kPa
Settings | relative permittivity at zero frequency
303 K | 18.25
313 K | 17.75
323 K | 16.57

CCCO [propan-1-ol] + Cc1ccccc1
[1], 101 kPa, φ1 = 1
Settings | relative permittivity at zero frequency
303 K | 19.95
313 K | 18.65
323 K | 17.82
